Converted amounts (≈) assume the structure as drawn.
Tests used:
[1] = system: S. aureus; assay: MIC assay, S. aureus; format: cell-based
[2] = system: S. pneumo.; assay: MIC assay, S. pneumo.; format: cell-based
[3] = system: E. faecalis; assay: MIC assay, E. faecalis; format: cell-based
[4] = system: H. flu; assay: MIC assay, H. flu; format: cell-based
[5] = system: E. coli; assay: MIC assay, E. coli; format: cell-based

Compound | MIC S. aureus [1] [µg/mL] | MIC S. pneumo. [2] [µg/mL] | MIC E. faecalis [3] [µg/mL] | MIC H. flu [4] [µg/mL] | MIC E. coli [5] [µg/mL] | melting point [°C]
3′-hydroxy-5′-(3-hydroxy-1-azetidinyl)benzoxazinorifamycin [Compound 1] | 0.002 | 0.00012 | 0.12 | 0.12 | 4 | 
CO[C@H]1/C=C/OC2(C)Oc3c(C)c(O)c4c(=O)c(c5oc6cc(N7CC8CC7CN8)cc(O)c6nc-5c4c3C2=O)NC(=O)/C(C)=C\C=C\[C@H](C)[C@H](O)[C@@H](C)[C@@H](O)[C@@H](C)[C@H](OC(C)=O)[C@@H]1C (some centres unmarked) [Compound 3] |  |  |  |  |  | > 330
CO[C@H]1/C=C/OC2(C)Oc3c(C)c(O)c4c(=O)c(c5oc6cc(N7CC8CCC7CN8)cc(O)c6nc-5c4c3C2=O)NC(=O)/C(C)=C\C=C\[C@H](C)[C@H](O)[C@@H](C)[C@@H](O)[C@@H](C)[C@H](OC(C)=O)[C@@H]1C (some centres unmarked) [Compound 4] |  |  |  |  |  | > 300
COC1C=COC2(C)Oc3c(C)c(O)c4c(=O)c(c5oc6cc(N7CC8CCC(C7)N8)cc(O)c6nc-5c4c3C2=O)NC(=O)C(C)=CC=CC(C)C(O)C(C)C(O)C(C)C(OC(C)=O)C1C (centres unmarked) [Compound 9] | 0.008 (≈ 0.00878 µM) | 0.00012 (≈ 0.000132 µM) | 1 (≈ 1.1 µM) | 2 (≈ 2.2 µM) | >8 | 
COC1C=COC2(C)Oc3c(C)c(O)c4c(=O)c(c5oc6cc(N7CC8CCC(C7)N8)cc(O)c6nc-5c4c3C2=O)NC(=O)C(C)=CC=CC(C)C(O)C(C)C(O)C(C)C(O)C1C (centres unmarked) [Compound 10] | 0.015 (≈ 0.0173 µM) | 0.001 (≈ 0.00115 µM) | 0.12 (≈ 0.138 µM) | 0.25 (≈ 0.288 µM) | 4 (≈ 4.6 µM) | 
